Several values for one entry are separate records, joined by “and”; a condition that tells them apart may be missing. Equal entries are not always repeated.
tested on: human primary preadipocytes; assay: Suppression of adipogenesis in cultures of human primary preadipocytes (EC50); format: cell-based

| Compound | EC50 |
| --- | --- |
| COc1ccc2cc3[n+](cc2c1OC)CCc1cc2c(cc1-3)OCO2 [Phytonutrient C1, Berberine] | 10 µM and 3.5 µg/mL |
| Oc1ccc(/C=C/c2cc(O)cc(O)c2)cc1 [Phytonutrient C3, Resveratrol] | 40 µM and 9.1 µg/mL |
| O=c1c(O)c(-c2ccc(O)c(O)c2)oc2cc(O)ccc12 [Phytonutrient C4, Fisetin] | 50 µM and 14.3 µg/mL |
| COc1cc(/C=C/C(=O)/C=C(O)/C=C/c2ccc(O)c(OC)c2)ccc1O [Phytonutrient C9, Curcumin] | 20 µM and 7.5 µg/mL |

Further lines, results first:

| EC50 | Compound |
| --- | --- |
| 20 µM and 5.7 µg/mL | O=c1cc(-c2ccc(O)c(O)c2)oc2cc(O)cc(O)c12 [Phytonutrient C2, Luteolin] |
| 25 µM and 7.6 µg/mL | O=c1c(O)c(-c2ccc(O)c(O)c2)oc2cc(O)cc(O)c12 [Phytonutrient C5, Quercetin] |
| 20 µM and 9.2 µg/mL | O=C(OC1Cc2c(O)cc(O)cc2OC1c1cc(O)c(O)c(O)c1)c1cc(O)c(O)c(O)c1 (stereo not shown) [Phytonutrient C7, Epigallocatechin Gallate (EGCG)] |

From patent US20220378814A1, “COMPOSITION OF PHYTONUTRIENTS FOR OBESITY PREVENTION” (ROSEMAN UNIVERSITY OF HEALTH SCIENCES, priority 2021, published 2022)
